What was measured:
[1] = tested on: participants; assay: Anxiety by Visual Analog Scale; assay type: in vivo, human; parameters: Anxiety (Visual Analog Scale) / Anxiety (VAS) MEAN (30-180) / Anxiety (VAS) Δ vs. CA: scale not given here
Description: All supplements were orally ingested with 8 fluid ounces of cold tap water. Anxiety was measured by Visual Analog Scale (VAS) at baseline, 30, 60, 90, 120 and 180 minutes after ingestion.

[2] = tested on: male Swiss Albino mice; assay: Forced swim test; assay type: in vivo
Description: (§1) Twenty-four 8-week-old male Swiss Albino mice were housed in an animal room at a constant temperature (22±3° C.) and humidity (30%-70%) under a 12:12 h light-dark cycle with standard laboratory diet (Purina 5L79, Rat and Mouse 18% protein; PMI Nutrition International, Brentwood, MO, USA). Distilled water was provided ad libitum. All animal experiments were reviewed and approved by the Institutional Animal Ethical Committee (IAEC) of Radiant Research Services Pvt. Ltd (Bangalore, India). All research was conducted in accordance with the guidelines of the committee for the purpose of control and supervision of experiments on animals.
(§2) After one week of acclimation, the animals were randomly divided by body weight into three groups (n=8 per group in each test) for oral treatment once a day, at approximately same time each day (±1 hour), for 28 consecutive days: (1) vehicle control or (2) 1-methylxanthine or (3) 1-methylxanthine plus paraxanthine. The dose administered to the mice was calculated using US Food and Drug Administration for human equivalence doses (HED), assuming a human weight of 60 kg. The following HED was used in this study: 100 mg 1-methylxanthine (Ingenious Ingredients, L.P Lewisville, TX, USA; mouse dose: 20.5 mg/kg bw/day), or 100 mg 1-methylxanthine (Ingenious Ingredients, L.P Lewisville, TX, USA; mouse dose: 20.5 mg/kg bw/day) plus 100 mg paraxanthine (ENFINITY™, Ingenious Ingredients, L.P Lewisville, TX, USA; mouse dose: 20.5 mg/kg bw/day). 0.5% Carboxy Methyl Cellulose sodium was used as vehicle and the test item formulations were prepared daily. Dosing was conducted via oral gavage using disposable polypropylene syringes with sterilized stainless steel gavage tubes. Food intake was monitored daily while water intake was ad libitum.
During treatment period, training was accomplished on a swimming chamber at a moderate room temperature for 15 mins. The animals were adapted to this procedure daily 1 hr after dosing for 5 days in a week during the treatment period. On 28th day of respective treatment of all the animals were subjected to force swim test. Animals were forced to swim individually for 30 min in a glass jar of height 20 cm, diameter 10 cm, and filled with fresh water to a depth of 15 cm at room temperature. The parameters measured were first occurrence of climbing (the period the animal tries to climb the wall of the chamber), duration of immobility (the total time during which the animal is immobile) and total time spent in active swimming (the total duration during which the animal swims throughout the experimental period).

[3] = tested on: participants; assay: Resting energy expenditure, placebo-controlled crossover; assay type: in vivo, human
Description: Two participants were assigned in a randomized, double-blind, placebo-controlled, crossover fashion to ingest a non-energetic placebo (maltodextrin) or a 200 mg dose of 1-methylxanthine (1-MX). All supplements were orally ingested with 8 fluid ounces of cold tap water. Resting Energy Expenditure was measured at baseline, 30, 60, 90, 120 and 180 minutes after ingestion.

[4] = tested on: male Swiss Albino mice; assay: Cook's pole climbing test, scopolamine-induced amnesia; assay type: in vivo
Description: Behavioral studies were conducted in mice to examine the learning and memory ability by using Cook's pole and Passive shock avoidance test.
as §1
as §2, with “7” for “28”, “Dosing was conducted via oral gavage using disposable polypropylene syringes with sterilized stainless steel gavage tubes.” left out
Mice were trained in such a way that the animal had to climb the pole (shock free zone) within 30 seconds to avoid a shock. […] At particular intervals, 20 trials were given for each animal and average of the shock avoidance and mistakes were recorded. […]

[5] = Person one, time 0, 200 mg oral
[6] = Person two, time 0, 200 mg oral

Cn1c(=O)[nH]c2nc[nH]c2c1=O [1-methylxanthine, 1-Methyl-3H-purine-2,6-dione]
lower feelings of anxiety in comparison to CA ([1]; 200 mg oral): 21%
Anxiety (VAS) MEAN (30-180) ([1]; Average): 58.8
Anxiety (VAS) Mean Δ from 0 ([1]; Average): +1.3
Anxiety (VAS) MEAN (30-180) ([1]; Person one): 48.6
Anxiety (VAS) Mean Δ from 0 ([1]; Person one): −1.4
Anxiety (VAS) Δ vs. CA ([1]; Person one): −26.0
Anxiety (Visual Analog Scale) ([1]; Person one, 30 min): 51
Anxiety (Visual Analog Scale) ([1]; Person one, 60 min): 40
Anxiety (Visual Analog Scale) ([1]; Person one, 90 min): 40
Anxiety (Visual Analog Scale) ([1]; Person one, 120 min): 51
Anxiety (Visual Analog Scale) ([1]; Person one, 180 min): 61
Anxiety (Visual Analog Scale) [1, 5]: 50
Anxiety (VAS) MEAN (30-180) ([1]; Person two): 69.0
Anxiety (VAS) Mean Δ from 0 ([1]; Person two): +4.0
Anxiety (VAS) Δ vs. CA ([1]; Person two): −5.2
Anxiety (Visual Analog Scale) ([1]; Person two, 30 min): 65
Anxiety (Visual Analog Scale) ([1]; Person two, 60 min): 65
Anxiety (Visual Analog Scale) ([1]; Person two, 90 min): 65
Anxiety (Visual Analog Scale) ([1]; Person two, 120 min): 75
Anxiety (Visual Analog Scale) ([1]; Person two, 180 min): 75
Anxiety (Visual Analog Scale) [1, 6]: 65
Duration of immobility ([2]; 30 min forced swim, day 28): 9.74 ± 0.79 min
duration of mobility/active swimming ([2]; 30 min forced swim, day 28): 20.26 ± 0.79 min
number of climbing ([2]; forced swim, day 28): 6.7±1.16
Duration of immobility lower compared to control ([2]; mouse, in vivo): 5.4%
duration of mobility/active swimming greater compared to control ([2]; mouse, in vivo): 2.8%
number of climbing improved compared to control ([2]; mouse, in vivo): 6.0%
Overall outcome on energy, endurance, mood ([2]; summary): showed improved energy and endurance, improved mood
Resting Energy Expenditure MEAN ([3]; Average): 1,897 kcals/day
Resting Energy Expenditure MEAN ([3]; Person one): 2,006 kcals/day
Resting Energy Expenditure ([3]; Person one, 30 min): 2050 kcals/day
Resting Energy Expenditure ([3]; Person one, 60 min): 1975 kcals/day
Resting Energy Expenditure ([3]; Person one, 90 min): 1988 kcals/day
Resting Energy Expenditure ([3]; Person one, 120 min): 1964 kcals/day
Resting Energy Expenditure ([3]; Person one, 180 min): 2053 kcals/day
Resting Energy Expenditure [3, 5]: 2017 kcals/day
Resting Energy Expenditure MEAN ([3]; Person two): 1,788 kcals/day
Resting Energy Expenditure ([3]; Person two, 30 min): 1789 kcals/day
Resting Energy Expenditure ([3]; Person two, 60 min): 1790 kcals/day
Resting Energy Expenditure ([3]; Person two, 90 min): 1777 kcals/day
Resting Energy Expenditure ([3]; Person two, 120 min): 1912 kcals/day
Resting Energy Expenditure ([3]; Person two, 180 min): 1670 kcals/day
Resting Energy Expenditure [3, 6]: 1769 kcals/day
Escape latency faster than control ([4]; Cook's pole): 14.9%
Escape latency, Cook's pole climbing test ([4]; mice, oral 7 days, scopolamine): 10.13 ± 0.83 s
Overall outcome on amnesia, memory and learning ([4]; summary of Cook's pole and passive shock avoidance tests): showed reversal of amnesia induced by scopolamine and improved memory and learning

Reference: patent US12390470B2, “1-methylxanthine-based bioactive composition and method of use thereof” (Ingenious Ingredients, LP, priority 2021, dated 2025)
